Experimental data as given in ChEMBL document CHEMBL3396981, “Synthesis and in vitro biological evaluation of 2-(phenylcarbamoyl)phenyl 4-substituted benzoates” (Bioorg Med Chem, 2015).
Values after ≈ are worked out from the molar mass of the structure shown.

Key:
[1] = test system: Mycobacterium tuberculosis; experiment: Antimycobacterial activity against INH, RIF, rifabutin, streptomycin-resistant Mycobacterium tuberculosis 9449/2006 after 21 days by microdilution method; format: functional; conditions: 9449/2006, 504 h
[2] = test system: Mycobacterium tuberculosis; experiment: Antimycobacterial activity against INH, RIF, rifabutin, streptomycin, ethambutol, ofloxacin-resistant Mycobacterium tuberculosis 7357/1998 after 14 days by microdilution method; format: functional; conditions: 7357/1998, 336 h
[3] = test system: Mycobacterium tuberculosis; experiment: Antimycobacterial activity against INH, RIF, rifabutin, streptomycin, ethambutol, ofloxacin-resistant Mycobacterium tuberculosis 7357/1998 after 21 days by microdilution method; format: functional; conditions: 7357/1998, 504 h
[4] = test system: Mycobacterium tuberculosis; experiment: Antimycobacterial activity against INH, RIF, rifabutin, streptomycin, ethambutol, ofloxacin, gentamicin, amikacin-resistant Mycobacterium tuberculosis Praha 131 after 14 days by microdilution method; format: functional; conditions: Praha 131, 336 h
[5] = test system: Mycobacterium tuberculosis; experiment: Antimycobacterial activity against INH, RIF, rifabutin, streptomycin-resistant Mycobacterium tuberculosis 9449/2006 after 14 days by microdilution method; format: functional; conditions: 9449/2006, 336 h
[6] = Selectivity index, ratio of IC50 for human HepG2 cells to MIC for multidrug-resistant Mycobacterium tuberculosis; format: toxicity, cell-based; conditions: read-out: Selectivity Index
[7] = test system: Mycobacterium tuberculosis; experiment: Antimycobacterial activity against INH, RIF, rifabutin, streptomycin, ethambutol, ofloxacin, clofazimine-resistant Mycobacterium tuberculosis Praha 4 after 14 days by microdilution method; format: functional; conditions: Praha 4, 336 h
[8] = test system: Mycobacterium tuberculosis; experiment: Antimycobacterial activity against INH, RIF, rifabutin, streptomycin, ethambutol, ofloxacin, gentamicin, amikacin-resistant Mycobacterium tuberculosis Praha 131 after 21 days by microdilution method; format: functional; conditions: Praha 131, 504 h
[9] = test system: Mycobacterium tuberculosis; experiment: Antimycobacterial activity against INH, RIF, rifabutin, streptomycin, ethambutol, ofloxacin, clofazimine-resistant Mycobacterium tuberculosis Praha 4 after 21 days by microdilution method; format: functional; conditions: Praha 4, 504 h
[10] = test system: Mycobacterium tuberculosis; experiment: Antimycobacterial activity against INH, RIF, rifabutin, streptomycin, ethambutol, clofazimine-resistant Mycobacterium tuberculosis Praha 1 after 14 days by microdilution method; format: functional; conditions: Praha 1, 336 h
[11] = test system: Mycobacterium tuberculosis; experiment: Antimycobacterial activity against INH, RIF, rifabutin, streptomycin, ethambutol, clofazimine-resistant Mycobacterium tuberculosis Praha 1 after 21 days by microdilution method; format: functional; conditions: Praha 1, 504 h
[12] = test system: Mycobacterium tuberculosis; experiment: Antimycobacterial activity against INH, RIF, rifabutin, streptomycin, ethambutol, ofloxacin-resistant Mycobacterium tuberculosis 234/2005 after 14 days by microdilution method; format: functional; conditions: 234/2005, 336 h
[13] = test system: Mycobacterium tuberculosis; experiment: Antimycobacterial activity against INH, RIF, rifabutin, streptomycin, ethambutol, ofloxacin-resistant Mycobacterium tuberculosis 234/2005 after 21 days by microdilution method; format: functional; conditions: 234/2005, 504 h

Compound	MIC [1]	MIC [2]	MIC [3]	MIC [4]	MIC [5]	selectivity ratio [6]	MIC [7]	MIC [8]	MIC [9]	MIC [10]	MIC [11]	MIC [12]	MIC [13]
O=C(Oc1ccc(Br)cc1C(=O)Nc1ccc(C(F)(F)F)cc1)c1ccc([N+](=O)[O-])cc1	0.5 µM (≈ 0.255 µg/mL)	0.5 µM (≈ 0.255 µg/mL)	0.5 µM (≈ 0.255 µg/mL)	0.25 µM (≈ 0.127 µg/mL)	0.5 µM (≈ 0.255 µg/mL)	> 100	0.5 µM (≈ 0.255 µg/mL)	0.5 µM (≈ 0.255 µg/mL)	0.5 µM (≈ 0.255 µg/mL)				
O=C(Oc1ccc(Cl)cc1C(=O)Nc1ccc(Cl)c(Cl)c1)c1ccc(Br)cc1	0.5 µM (≈ 0.25 µg/mL)	0.125 µM (≈ 0.0624 µg/mL)	0.125 µM (≈ 0.0624 µg/mL)	0.25 µM (≈ 0.125 µg/mL)	0.25 µM (≈ 0.125 µg/mL)	> 100	0.25 µM (≈ 0.125 µg/mL)	0.25 µM (≈ 0.125 µg/mL)	0.5 µM (≈ 0.25 µg/mL)				
O=C(Oc1ccc(Cl)cc1C(=O)Nc1ccc(C(F)(F)F)cc1)c1ccc([N+](=O)[O-])cc1	1 µM (≈ 0.465 µg/mL)	0.5 µM (≈ 0.232 µg/mL)	1 µM (≈ 0.465 µg/mL)	0.5 µM (≈ 0.232 µg/mL)	0.5 µM (≈ 0.232 µg/mL)	> 50	0.25 µM (≈ 0.116 µg/mL)	1 µM (≈ 0.465 µg/mL)	1 µM (≈ 0.465 µg/mL)	0.5 µM (≈ 0.232 µg/mL)	1 µM (≈ 0.465 µg/mL)	0.25 µM (≈ 0.116 µg/mL)	1 µM (≈ 0.465 µg/mL)
Cc1ccc(C(=O)Oc2ccc(Cl)cc2C(=O)Nc2ccc(Cl)c(Cl)c2)cc1	1 µM (≈ 0.435 µg/mL)	1 µM (≈ 0.435 µg/mL)	1 µM (≈ 0.435 µg/mL)	1 µM (≈ 0.435 µg/mL)	1 µM (≈ 0.435 µg/mL)	> 25	1 µM (≈ 0.435 µg/mL)	1 µM (≈ 0.435 µg/mL)	1 µM (≈ 0.435 µg/mL)	1 µM (≈ 0.435 µg/mL)	1 µM (≈ 0.435 µg/mL)	2 µM (≈ 0.869 µg/mL)	2 µM (≈ 0.869 µg/mL)
O=C(Oc1ccc(Cl)cc1C(=O)Nc1ccc(Cl)c(Cl)c1)c1ccc([N+](=O)[O-])cc1	0.5 µM (≈ 0.233 µg/mL)	0.25 µM (≈ 0.116 µg/mL)	0.5 µM (≈ 0.233 µg/mL)	0.25 µM (≈ 0.116 µg/mL)	0.25 µM (≈ 0.116 µg/mL)	> 100	0.25 µM (≈ 0.116 µg/mL)	0.25 µM (≈ 0.116 µg/mL)	0.5 µM (≈ 0.233 µg/mL)				
O=C(Oc1ccc(Cl)cc1C(=O)Nc1ccc(C(F)(F)F)cc1)c1ccc(Br)cc1	1 µM (≈ 0.499 µg/mL)	1 µM (≈ 0.499 µg/mL)	1 µM (≈ 0.499 µg/mL)	1 µM (≈ 0.499 µg/mL)	1 µM (≈ 0.499 µg/mL)	> 25		1 µM (≈ 0.499 µg/mL)		1 µM (≈ 0.499 µg/mL)	1 µM (≈ 0.499 µg/mL)	2 µM (≈ 0.997 µg/mL)	2 µM (≈ 0.997 µg/mL)
Cc1ccc(C(=O)Oc2ccc(Br)cc2C(=O)Nc2ccc(C(F)(F)F)cc2)cc1	1 µM (≈ 0.478 µg/mL)	1 µM (≈ 0.478 µg/mL)	1 µM (≈ 0.478 µg/mL)	1 µM (≈ 0.478 µg/mL)	1 µM (≈ 0.478 µg/mL)	> 25	1 µM (≈ 0.478 µg/mL)	1 µM (≈ 0.478 µg/mL)	1 µM (≈ 0.478 µg/mL)	1 µM (≈ 0.478 µg/mL)	1 µM (≈ 0.478 µg/mL)	2 µM (≈ 0.957 µg/mL)	2 µM (≈ 0.957 µg/mL)
O=C(Oc1ccc(Br)cc1C(=O)Nc1ccc(C(F)(F)F)cc1)c1ccccc1	1 µM (≈ 0.464 µg/mL)	0.25 µM (≈ 0.116 µg/mL)	0.5 µM (≈ 0.232 µg/mL)	0.5 µM (≈ 0.232 µg/mL)	1 µM (≈ 0.464 µg/mL)			1 µM (≈ 0.464 µg/mL)		1 µM (≈ 0.464 µg/mL)	1 µM (≈ 0.464 µg/mL)	0.5 µM (≈ 0.232 µg/mL)	0.5 µM (≈ 0.232 µg/mL)
O=C(Oc1ccc(Br)cc1C(=O)Nc1ccc(C(F)(F)F)cc1)c1ccc(C(F)(F)F)cc1	1 µM (≈ 0.532 µg/mL)	1 µM (≈ 0.532 µg/mL)	1 µM (≈ 0.532 µg/mL)	0.5 µM (≈ 0.266 µg/mL)	1 µM (≈ 0.532 µg/mL)			1 µM (≈ 0.532 µg/mL)		0.5 µM (≈ 0.266 µg/mL)	1 µM (≈ 0.532 µg/mL)	0.5 µM (≈ 0.266 µg/mL)	1 µM (≈ 0.532 µg/mL)
O=C(Oc1ccc(Cl)cc1C(=O)Nc1ccc(C(F)(F)F)cc1)c1ccc(C(F)(F)F)cc1	1 µM (≈ 0.488 µg/mL)	0.5 µM (≈ 0.244 µg/mL)	1 µM (≈ 0.488 µg/mL)	0.5 µM (≈ 0.244 µg/mL)	1 µM (≈ 0.488 µg/mL)			1 µM (≈ 0.488 µg/mL)		0.5 µM (≈ 0.244 µg/mL)	0.5 µM (≈ 0.244 µg/mL)	0.5 µM (≈ 0.244 µg/mL)	1 µM (≈ 0.488 µg/mL)
O=C(Oc1ccc(Cl)cc1C(=O)Nc1ccc(C(F)(F)F)cc1)c1ccccc1	0.5 µM (≈ 0.21 µg/mL)	0.25 µM (≈ 0.105 µg/mL)	0.5 µM (≈ 0.21 µg/mL)	0.25 µM (≈ 0.105 µg/mL)	0.5 µM (≈ 0.21 µg/mL)			0.5 µM (≈ 0.21 µg/mL)		0.5 µM (≈ 0.21 µg/mL)	0.5 µM (≈ 0.21 µg/mL)	0.25 µM (≈ 0.105 µg/mL)	0.25 µM (≈ 0.105 µg/mL)
Cc1ccc(C(=O)Oc2ccc(Cl)cc2C(=O)Nc2ccc(C(F)(F)F)cc2)cc1	1 µM (≈ 0.434 µg/mL)	1 µM (≈ 0.434 µg/mL)	1 µM (≈ 0.434 µg/mL)	1 µM (≈ 0.434 µg/mL)	1 µM (≈ 0.434 µg/mL)	> 25	1 µM (≈ 0.434 µg/mL)	1 µM (≈ 0.434 µg/mL)	1 µM (≈ 0.434 µg/mL)	1 µM (≈ 0.434 µg/mL)	1 µM (≈ 0.434 µg/mL)	2 µM (≈ 0.868 µg/mL)	2 µM (≈ 0.868 µg/mL)
O=C(Oc1ccc(Br)cc1C(=O)Nc1ccc(C(F)(F)F)cc1)c1ccc(Br)cc1	1 µM (≈ 0.543 µg/mL)	0.5 µM (≈ 0.272 µg/mL)	1 µM (≈ 0.543 µg/mL)	0.5 µM (≈ 0.272 µg/mL)	0.5 µM (≈ 0.272 µg/mL)	> 50	0.25 µM (≈ 0.136 µg/mL)	1 µM (≈ 0.543 µg/mL)	0.5 µM (≈ 0.272 µg/mL)				
O=C(Oc1ccc(Cl)cc1C(=O)Nc1ccc(Cl)c(Cl)c1)c1ccccc1	1 µM (≈ 0.421 µg/mL)	0.5 µM (≈ 0.21 µg/mL)	0.5 µM (≈ 0.21 µg/mL)	0.5 µM (≈ 0.21 µg/mL)	0.5 µM (≈ 0.21 µg/mL)			1 µM (≈ 0.421 µg/mL)		0.5 µM (≈ 0.21 µg/mL)	0.5 µM (≈ 0.21 µg/mL)	0.25 µM (≈ 0.105 µg/mL)	0.5 µM (≈ 0.21 µg/mL)
O=C(Oc1ccc(Cl)cc1C(=O)Nc1ccc(Cl)c(Cl)c1)c1ccc(C(F)(F)F)cc1	2 µM (≈ 0.977 µg/mL)	1 µM (≈ 0.489 µg/mL)	2 µM (≈ 0.977 µg/mL)	2 µM (≈ 0.977 µg/mL)	2 µM (≈ 0.977 µg/mL)			2 µM (≈ 0.977 µg/mL)		1 µM (≈ 0.489 µg/mL)	2 µM (≈ 0.977 µg/mL)	1 µM (≈ 0.489 µg/mL)	2 µM (≈ 0.977 µg/mL)
